Assay results taken from article PMC4723341, “Ribonuclease H/DNA Polymerase HIV-1 Reverse Transcriptase Dual Inhibitor: Mechanistic Studies on the Allosteric Mode of Action of Isatin-Based Compound RMNC6” (PLoS ONE, 2016).
Where “and” joins values, the source holds several entries; their conditions need not be identical. Identical values can stand only once. Like-named read-outs stand apart in the source and are kept apart here.

Experiments:
[1] = biological target: T1, HIV-1 RT-associated RNase H activity, wt RT (Human immunodeficiency virus type 1 group M subtype B, UniProt P04585); experiment: biochemical; design: species or system HIV-1 group M subtype B
T1 construct: The 1:1 ration between the p66/p51 subunits was also verified; made in house; host or cells: E. coli M15
Method: (§1) HIV RT-associated RNase H activity was measured as described in 100 μL reaction volume containing 50 mM Tris-HCl buffer pH 7.8, 6 mM MgCl2, 1 mM dithiothreitol (DTT), 80 mM KCl, 0.25 μM hybrid RNA/DNA 5'-GAUCUGAGCCUGGGAGCU-Fluorescin-3' (HPLC, dry, QC: Mass Check) (available from Metabion) 5'-Dabcyl-AGCTCCCAGGCTCAGATC-3'(HPLC, dry, QC: Mass Check), increasing concentrations of inhibitors, whose dilution were made in water, and different amount of enzymes according to a linear range of dose-response curve: 20 ng of WT RT; 60 ng K103N RT; 37.5 ng V106A RT; 75 ng V108A RT; 5 ng Y181C RT; 50 ng Y188A RT; 30 ng Y188L RT; 100 ng E224A RT; 37.5 ng P225A RT; 20 ng P226A RT; 18 ng F227A RT; 30 ng L228A RT; 30 ng W229A RT; 10 ng M230A RT; 30 ng G231A RT; 62.5 ng N474A RT; 1 μg Y501A RT; 100 ng A502F RT; 37.5 ng A508V RT; 38 ng HIV-1 group O RT. The reaction mixture was incubated for 1 h at 37°C, stopped by addition of EDTA and products were measured with a multilabel counter plate reader Victor 3 (Perkin Elmer model 1420–051) equipped with filters for 490/528 nm (excitation/emission wavelength)

[2] = biological target: T2, HIV-1 RT-associated RNase H activity, L228A RT (Human immunodeficiency virus type 1 group M subtype B, UniProt P04585, L815A); experiment: RNase H activity assay, L228A RT; format: biochemical, HIV-1 group M subtype B; details: for Fold of increase of RNase H IC50 with respect to wt RT: L228A RT
T2 construct: The 1:1 ration between the p66/p51 subunits was also verified; made in house; host or cells: E. coli M15
Method: as §1

[3] = biological target: T3, HIV-1 RT-associated RNase H activity, A502F RT (Human immunodeficiency virus type 1 group M subtype B, UniProt P04585, A1089F); experiment: RNase H activity assay, A502F RT; format: biochemical, HIV-1 group M subtype B; details: for Fold of increase of RNase H IC50 with respect to wt RT: A502F RT
T3 construct: The 1:1 ration between the p66/p51 subunits was also verified; made in house; host or cells: E. coli M15
Method: as §1

[4] = biological target: T4, HIV-1 RT-associated RNase H activity, A508V RT (Human immunodeficiency virus type 1 group M subtype B, UniProt P04585, A1095V); experiment: RNase H activity assay, A508V RT; format: biochemical, HIV-1 group M subtype B; details: for Fold of increase of RNase H IC50 with respect to wt RT: A508V RT
T4 construct: The 1:1 ration between the p66/p51 subunits was also verified; made in house; host or cells: E. coli M15
Method: as §1

[5] = biological target: T5, HIV-1 RT-associated RNase H activity, Y188L RT (Human immunodeficiency virus type 1 group M subtype B, UniProt P04585, Y775L); experiment: RNase H activity assay, Y188L RT; format: biochemical, HIV-1 group M subtype B
T5 construct: The 1:1 ration between the p66/p51 subunits was also verified; made in house; host or cells: E. coli M15
Method: as §1

[6] = biological target: T6, HIV-1 RT-associated RNase H activity, W229A RT (Human immunodeficiency virus type 1 group M subtype B, UniProt P04585, W816A); experiment: RNase H activity assay, W229A RT; format: biochemical, HIV-1 group M subtype B; details: for Fold of increase of RNase H IC50 with respect to wt RT: W229A RT
T6 construct: The 1:1 ration between the p66/p51 subunits was also verified; made in house; host or cells: E. coli M15
Method: as §1

[7] = biological target: T7, p66/p51 HIV-1 RT (Human immunodeficiency virus type 1 group M subtype B, UniProt P04585); experiment: Thermal stability by differential scanning fluorimetry; format: binding; details: increasing concentrations of inhibitor
T7 construct: The 1:1 ration between the p66/p51 subunits was also verified; made in house; host or cells: E. coli M15
Method: Thermal stability assays were performed according to Nettleship et al.. […] The mixture was heated from 30 to 90°C in increments of 0.2°C. Fluorescence intensity was measured using excitation and emission wavelengths of 483 and 568 nm, respectively. Changes in protein thermal stability (ΔTm) upon inhibitor binding were analyzed by using the LightCycler 480 software. All assays were performed in triplicate.

[8] = biological target: T8, HIV-1 RT-associated RNase H activity, E224A RT (Human immunodeficiency virus type 1 group M subtype B, UniProt P04585, E811A); experiment: RNase H activity assay, E224A RT; format: biochemical, HIV-1 group M subtype B; details: for Fold of increase of RNase H IC50 with respect to wt RT: E224A RT
T8 construct: The 1:1 ration between the p66/p51 subunits was also verified; made in house; host or cells: E. coli M15
Method: as §1

[9] = biological target: T9, HIV-1 RT-associated RNase H activity, V108A RT (Human immunodeficiency virus type 1 group M subtype B, UniProt P04585, V695A); experiment: RNase H activity assay, V108A RT; format: biochemical, HIV-1 group M subtype B
T9 construct: The 1:1 ration between the p66/p51 subunits was also verified; made in house; host or cells: E. coli M15
Method: as §1

[10] = biological target: T10, HIV-1 RT-associated RNase H activity, V106A RT (Human immunodeficiency virus type 1 group M subtype B, UniProt P04585, V693A); experiment: RNase H activity assay, V106A RT; format: biochemical, HIV-1 group M subtype B
T10 construct: The 1:1 ration between the p66/p51 subunits was also verified; made in house; host or cells: E. coli M15
Method: as §1

[11] = biological target: T11, HIV-1 RT-associated RNase H activity, G231A RT (Human immunodeficiency virus type 1 group M subtype B, UniProt P04585, G818A); experiment: RNase H activity assay, G231A RT; format: biochemical, HIV-1 group M subtype B
T11 construct: The 1:1 ration between the p66/p51 subunits was also verified; made in house; host or cells: E. coli M15
Method: as §1

[12] = system: HIV-1 RT-associated RNase H activity, G231A RT; experiment: RNase H activity assay, G231A RT; format: biochemical, HIV-1 group M subtype B; details: G231A RT
Method: as §1

[13] = biological target: T12, HIV-1 RT-associated RNase H activity, K103N RT (Human immunodeficiency virus type 1 group M subtype B, UniProt P04585, K690N); experiment: RNase H activity assay, K103N RT; format: biochemical, HIV-1 group M subtype B
T12 construct: The 1:1 ration between the p66/p51 subunits was also verified; made in house; host or cells: E. coli M15
Method: as §1

SMILES	IC50 [1]	IC50 [2]	Fold of increase of RNase H IC50 with respect to wt RT [2]	IC50 [3]	Fold of increase of RNase H IC50 with respect to wt RT [3]	IC50 [4]	Fold of increase of RNase H IC50 with respect to wt RT [4]	IC50 [6]	Fold of increase of RNase H IC50 with respect to wt RT [6]	IC50 [8]	Fold of increase of RNase H IC50 with respect to wt RT [8]	IC50 [9]	IC50 [10]	IC50 [11]	Fold of increase of RNase H IC50 with respect to wt RT [12]	also measured
CC(C)c1ccc(O)c(=O)c(O)c1 [BTP, β-thujaplicinol, reference compound]	190 ± 30 nM	100 ± 60 nM	0.5	170 ± 30 nM	0.9	160 ± 50 nM	0.8	150 ± 80 nM	0.8	150 ± 30 nM	0.8	180 ± 40 nM	160 ± 30 nM	250 ± 30 nM	1.3	IC50 ([5]; Y188L RT, read-out: IC50 RNase H): 80 ± 50 nM; Tm increase of HIV-1 RT ([7]; in the presence of Mg2+): < 2.0 °C; IC50 ([13]; K103N RT, read-out: IC50 RNase H): 220 ± 80 nM
N#Cc1ccc(-c2csc(NN=C3C(=O)Nc4ccccc43)n2)cc1 [RMNC6, (Z)-4-(2-(2-(2-oxoindolin-3-ylidene)hydrazinyl)thiazol-4-yl)benzonitrile]	1300 ± 300 nM	1500 ± 100 nM	1.1	13000 ± 700 nM	10.0	6500 ± 700 nM	5.0	1900 ± 500 nM	1.5	7900 ± 1100 nM	6 and 6.1	13100 ± 2500 nM	5300 ± 600 nM	1700 ± 400 nM	1.3	IC50 [5]: 1600 ± 500 nM; Effect on RT thermal stability [7]: did not affect significantly; IC50 [13]: 2300 ± 100 nM
